In publication PMC7180617, “Biological Evaluation of 3-Benzylidenechromanones and Their Spiropyrazolines-Based Analogues” (Molecules, 2020):
Several values for one entry are separate records, joined by “and”; a condition that tells them apart may be missing. Equal values may be shown once.

Legend:
[1] = Lipophilicity (logP) by RP-TLC; settings: RP-18 F254S TLC plates
Excerpt: Lipophilicity is one of the most important physicochemical properties in pharmaceutical research. It can be considered a key determinant of the pharmacokinetic properties of a drug. It is commonly measured by the partition coefficient between water and n-octanol, being expressed as logP [14]. […] Knowledge of the partition coefficient is valuable: it is frequently used in structure–activity relationship (SAR) and quantitative structure–activity relationship (QSAR) studies. The experimental lipophilicity of the synthesized compounds, viz. benzylideneflavanones, benzylidenechromanones and spiropyrazolines, was determined using RP-TLC. […] It is important to examine the relationship between structure of the compound and its lipophilicity and cytotoxicity.
The RP-TLC experiments were performed on TLC plates (5 × 10 cm) RP-18 F254S (Merck, Darmstadt, Germany). The synthesized compounds were dissolved in N,N-dimethylformamide DMF (2 mg/mL). […] A DMF-water solvent system was used as mobile phase. […] All experiments were performed at room temperature. The logP parameter was calculated using the equation from the calibration curve.

[2] = system: NALM-6 cells; parameters: method as in PMID 30513785; settings: MTT; cited from earlier work
[3] = system: HL-60 cells; parameters: method as in PMID 30513785; settings: MTT; cited from earlier work
[4] = system: HL-60 cells; assay: Cell cycle analysis by flow cytometry (propidium iodide); assay type: cell-based, human; settings: for cell cycle, G1, mean / cell cycle, G2/M, mean / cell cycle, S, mean: mean of n=2; for cell cycle distribution, G1 / cell cycle distribution, G2 / cell cycle distribution, G2/M: HL-60, 20 h, mean ± SD, n = 2
Method: The next stage examined the effects of the selected compounds on cell cycle progression in HL-60 leukemia cells. […] One million HL-60 (subline CCL 240; cell type: promyeloblast) cells in 3 mL of RPMI 1640 supplemented with 20% FBS were seeded on 6-well plate. […] Fixed cells were stored in −20 °C for 2–3 days. Before analysis, cells were centrifuged (10 min, 1500 rpm, 4 °C) and washed twice with cold PBS. After the second wash, the cells were suspended in 1mL of PBS containing 100 μg of RNase A and incubated in 37 °C for 10 min. Next, 5 μL of solution of propidium iodide (1 mg/mL) was added to each sample and incubated in dark for 30 min at RT. Stained cells were analyzed by flow cytometry (FACS Calibur, BD Biosciences, San Jose, CA, USA). Data from 10,000 gated cells were collected using CellQuestPro software (Ver 6.0, Becton Dickinson) and cell cycle analysis was performed with ModFit LT software (Ver 3.2, Verity Software House, Topsham, ME, USA).

[5] = system: WM-115 cells; parameters: method as in PMID 30513785; settings: MTT; cited from earlier work
[6] = system: plasmid DNA (pcDNAHisC); assay: Digestion of plasmid DNA with BamHI restriction nuclease (DNA-cleavage protection); assay type: biochemical; settings: 10 µM, overnight 37 °C, then BamHI 3 h, agarose gel
Method: This cytotoxicity was tested with regard to its effect on the cell cycle and the ability to modify DNA. In addition to the compounds shown in Table 4, two highly-cytotoxic compounds (11 and 12) were also tested. Their structure and biological activity were described in a previous article. […] To test this hypothesis, plasmid DNA was incubated with the test compounds and subsequently digested with BamH1 endonuclease. […] This conclusion is supported by the presence of the circular form of plasmid DNA after digestion with BamH1.
First, 0.5 µg of plasmid DNA (pcDNAHisC, total length 5.5 kbp) containing a unique BamHI restriction site was dissolved in a 1x BamHI reaction buffer and incubated overnight at 37 °C with the test compounds or daunorubicin, which was used as a positive control. The concentration of the test compounds and daunorubicin in the samples was 10 µM. The final concentration of DMSO in all samples was 10%. In the next step, the reaction mixtures were digested with BamHI restriction endonuclease (2 U/µL) for 3 h at 37 °C. Total reaction volume was 10 µL. Products of the reaction were separated in the 1% agarose gel in TBE buffer. The gel was stained with ethidium bromide and DNA fragments were visualized under a UV lamp (GBox, Syngene, Frederick, MD, USA).

[7] = Figure S3, HL-60, 0.5 × IC50 (µM: quercetin 29, 1 1.5, 7 18, 10 4.7, 11 4.5, 12 6)
[8] = Figure S3, HL-60, 0.5 × IC50, each of two repetitions
[9] = Figure S3, HL-60, 1 × IC50 (µM: quercetin 58, 1 3, 7 35, 10 9.4, 11 9, 12 12)
[10] = Figure S3, HL-60, 1 × IC50, each of two repetitions
[11] = 0.5 × IC50 (µM: quercetin 29, 2 1.5, 7 18, 12 6, 11 4.5, 10 4.7)
[12] = 1 × IC50 (µM: quercetin 58, 2 3, 7 35, 12 12, 11 9, 10 9.4)

SMILES: CCN(CC)c1ccc(/C=C2\COc3ccccc3C2=O)cc1 [Compound 12, (E)-3-(4-N,N-diethylaminobenzylidene)chroman-4-one]
- chromatographic logP [1]: 3.43
- IC50 [2]: 8.69 ± 0.4 µM
- IC50 [3]: 11.8 ± 1.97 µM
- cell cycle, G1, mean [4, 7]: 19,26%
- cell cycle, G2/M, mean [4, 7]: 52,38%
- cell cycle, S, mean [4, 7]: 28,37%
- cell cycle, G1, single repetitions [4, 8]: 17,44% and 21,08%
- cell cycle, G2/M, single repetitions [4, 8]: 56,79% and 47,96%
- cell cycle, S, single repetitions [4, 8]: 22,13% and 34,60%
- cell cycle, G1, mean ([4]; Figure S3, HL-60, 1 × IC50 (µM in parenthesis: quercetin 58, 1 3, 7 35, 10 9.4, 11 9, 12 12)): 19,53%
- cell cycle, G2/M, mean [4, 9]: 52,44%
- cell cycle, S, mean [4, 9]: 28,03%
- cell cycle, G2/M, single repetitions [4, 10]: 44,70% and 60,18%
- cell cycle, S, single repetitions [4, 10]: 27,06% and 29,00%
- cell cycle distribution, G1 [4, 11]: 19.3 ± 2.6%
- cell cycle distribution, G2 [4, 11]: 28.4 ± 8.8%
- cell cycle distribution, G2/M [4, 11]: 52.4 ± 6.2%
- cell cycle distribution, G1 [4, 12]: 19.5 ± 12.3%
- cell cycle distribution, G2 [4, 12]: 28.0 ± 1.4%
- cell cycle distribution, G2/M [4, 12]: 52.4 ± 10.9%
- cells arrested in G2/M phase ([4]; HL-60, concentrations of IC50 and 0.5 × IC50): 50–60%
- IC50 [5]: 18.1 ± 3.14 µM

SMILES: COc1cccc2c1C(=O)c1c(O)c3c(c(O)c1C2=O)C[C@@](O)(C(C)=O)C[C@@H]3O[C@H]1C[C@H](N)[C@H](O)[C@H](C)O1 [daunorubicin]
- inhibition of BamHI digestion of plasmid DNA (in words) [6]: prevented linearization of DNA
